According to patent publication US8592463B2, “Hedgehog pathway antagonists and therapeutic applications thereof” (Siena Biotech S.p.A., priority 2007, dated 2013):

Columns and labels:
Smo receptor = target: T1, Smo receptor (Homo sapiens, UniProt Q99835); experiment: Saturation binding of Bodipy-Cyclopamine to stable Smo-FLAG transfected cell line clone 3-5
T1 construct: expressed in transfected cells; host or cells: FlpIN293 (HEK293-derived)
Protocol: (§1) The interaction of compounds with the Smo receptor was tested by a displacement binding assay using fluorescent ligand for the Smo receptor (Bodipy-Cyclopamine, Toronto Research Chemical Inc, cat#B674800) as the labeled ligand to be displaced.
(§2) In order to determine the Kd (concentration of the ligand where 50% of the maximal binding is reached) and the Bmax (maximal amount of ligand which can bind specifically to the receptor in a biological preparation) of the fluorescent ligand, the Specific Binding (SB) was calculated by subtraction Non Specific Binding (NSB) from Total Binding (TB). The TB was determined by adding increasing concentration of Bodipy-Cyclopamine to the cells, while the NSB was determined by adding a mixture of increasing concentration of Bodipy-Cyclopamine with a saturating concentration of an well described antagonist (in this case, N-[3-(1H-benzimidazol-2-yl)-4-chlorophenyl]-3,5-dimethoxy-benzamide (Rubin et al. WO2003011219) at 10 μM was selected) to the cells. For each concentration of Bodipy-Cyclopamine, the SB was calculated by subtracting the value of NSB from TB. From the SB curve Bmax and Kd were calculated. […] The Ki is the concentration of non labeled ligand which inhibits 50% of the specific binding (SB) of the labeled ligand, and corrected for the effective used concentration of the labeled ligand. […]

[1] = tested on: 293FlpIN/clone E-3 mock transfected cells; experiment: Saturation binding of Bodipy-Cyclopamine to stable mock transfected cell line clone E-3; parameters: species or system human
Protocol: as §1, §2

T1 sequence (Q99835 28-787): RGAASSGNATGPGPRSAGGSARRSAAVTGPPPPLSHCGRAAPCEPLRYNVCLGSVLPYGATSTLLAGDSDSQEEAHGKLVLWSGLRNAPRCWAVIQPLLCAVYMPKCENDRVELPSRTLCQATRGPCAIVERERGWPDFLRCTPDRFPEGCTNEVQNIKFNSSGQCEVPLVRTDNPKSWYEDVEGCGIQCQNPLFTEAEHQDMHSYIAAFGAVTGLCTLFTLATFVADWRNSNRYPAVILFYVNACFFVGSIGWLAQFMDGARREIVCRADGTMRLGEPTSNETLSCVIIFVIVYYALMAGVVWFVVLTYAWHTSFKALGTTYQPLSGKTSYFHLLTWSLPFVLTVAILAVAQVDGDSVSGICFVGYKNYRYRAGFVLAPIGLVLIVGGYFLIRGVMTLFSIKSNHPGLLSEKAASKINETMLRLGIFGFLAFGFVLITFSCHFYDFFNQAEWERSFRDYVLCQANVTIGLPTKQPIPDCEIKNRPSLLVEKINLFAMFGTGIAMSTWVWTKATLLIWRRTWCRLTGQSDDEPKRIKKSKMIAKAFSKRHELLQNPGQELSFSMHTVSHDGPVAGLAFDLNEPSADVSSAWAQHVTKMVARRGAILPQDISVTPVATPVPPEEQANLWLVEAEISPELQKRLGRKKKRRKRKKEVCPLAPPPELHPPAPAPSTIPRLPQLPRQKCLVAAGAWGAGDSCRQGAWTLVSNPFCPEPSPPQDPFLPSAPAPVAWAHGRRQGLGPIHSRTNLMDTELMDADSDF

## Bodipy-Cyclopamine
Smo receptor
  Kd: 44.3 nM
[1]
  Kd: 115 nM
